# Measured values from patent publication US20050130947A1, “Formulations for inhalation” (priority 2002, published 2005).
# What was measured:
# [1] = test system: rat model of thymus involution; assay: Rat model of thymus involution; assay type: in vivo; settings: 3 daily IT doses of 100 μg
# [2] = test system: ovalbumin sensitised Brown Norway rat eosinophilia model; assay: Ovalbumin sensitised Brown Norway rat eosinophilia model; assay type: in vivo; settings: single 30 μg intra-tracheal dose, suspension in saline, 30 min prior to ovalbumin challenge
# Procedure: Pharmacological activity in vivo was assessed in an ovalbumin sensitised Brown Norway rat eosinophilia model. This model is designed to mimic allergen induced lung eosinophilia, a major component of lung inflammation in asthma.
# [3] = Pharmacokinetics after intra-tracheal dry powder dosing in the pig; assay type: in vivo; settings: for AUC (0-inf): compound (I) AUC calculated with IV plasma half-life
# Procedure: Serial blood samples were taken for up to 8 h following dosing.
# [4] = Pharmacokinetics after intravenous and oral dosing in rats; settings: rat, IV 0.1 mg/kg
smiles,measurement,setting,value
"CCC(=O)O[C@]1(C(=O)SCF)[C@H](C)C[C@H]2[C@@H]3C[C@H](F)C4=CC(=O)C=C[C@]4(C)[C@@]3(F)[C@@H](O)C[C@@]21C [Fluticasone propionate, 6α, 9α-Difluoro-17α-(1-oxopropoxy)-11β-hydroxy-16α-methyl-3-oxo-androsta-1,4-diene-17β-carbothioic acid S-fluoromethyl ester, reference compound]",reduction of thymus weight,[1],78%
same,inhibition of lung eosinophilia,[2],41%
same,Cmax,"[3]; Pig 1, 1 mg intra-tracheal dry powder blend in lactose",0.277 ng/mL
same,AUC (0-inf),"[3]; Pig 1, 1 mg intra-tracheal dry powder",0.455 ng·h/mL
same,Cmax,"[3]; Pig 2, 1 mg intra-tracheal dry powder blend in lactose",0.218 ng/mL
same,AUC (0-inf),"[3]; Pig 2, 1 mg intra-tracheal dry powder",0.495 ng·h/mL
same,time after dosing up to which quantifiable in plasma,"[3]; anaesthetised pigs, 1 mg intra-tracheal, LLOQ 10 pg/mL compound (I), 20 pg/mL fluticasone propionate",up to 8 hours
same,plasma clearance,[4],45.2 mL/min/kg
